Data from ChEMBL document CHEMBL4334442, “Effects of Acetylshikonin on the Infection and Replication of Coxsackievirus A16 in Vitro and in Vivo” (J Nat Prod, 2019).
Calls of active or inactive are those of the source. The calls are words filed in the database; no cut-off is given here.

What was measured:
[1] = tested on: Coxsackievirus A16; experiment: Antiviral activity against Coxsackievirus A16 TA271 infected in ICR mouse assessed as reduction in lesions in hind limb muscle at 2 mg/kg, im after 5 days post infection by H and E staining based histopathological analysis; type: functional, organism-based
[2] = tested on: Coxsackievirus A16; experiment: Antiviral activity against Coxsackievirus A16 TA271 infected in ICR mouse assessed as reduction in viral load in lung at 0.08 uM/L preincubated with viral suspension for 2 hrs followed by intramuscular administration after 3 to 5 days post infection by RT-PCR analysis; type: functional
[3] = tested on: Coxsackievirus A16; experiment: Antiviral activity against Coxsackievirus A16 TA271 infected in ICR mouse assessed as effect on virus-induced IL-6 level at 2 mg/kg, im after 3 days post infection by ELISA; type: functional, organism-based
[4] = tested on: Coxsackievirus A16; experiment: Antiviral activity against Coxsackievirus A16 TA271 infected in human RD cells assessed as inhibition of virus-induced cytopathic effect at 0.08 uM/L preincubated with viral suspension for 2 hrs followed by cell addition and measured after 24 hrs by CCK-8 assay relative to control; type: functional; conditions: Enterovirus A
[5] = tested on: Mus musculus; experiment: Effect on IFN-gamma level in ICR mouse at 2 mg/kg, administered intramuscularly by ELISA; type: functional, organism-based
[6] = tested on: Coxsackievirus A16; experiment: Antiviral activity against Coxsackievirus A16 TA271 infected in ICR mouse assessed as reduction in muscle fiber breakage in heart at 2 mg/kg, im after 5 days post infection by H and E staining based histopathological analysis; type: functional, organism-based
[7] = tested on: Coxsackievirus A16; experiment: Antiviral activity against Coxsackievirus A16 TA271 infected in RD cells at preinfection stage assessed as increase in intracytoplasmic granules at 0.08 uM/L preincubated with cells for 3 hrs followed by viral infection and measured after 1 hr by inverted microscopic analysis; type: functional, cell-based
[8] = tested on: Coxsackievirus A16; experiment: Antiviral activity against Coxsackievirus A16 TA271 infected in ICR mouse assessed as mouse survival at 2 mg/kg, im measured on day 6 post infection relative to control; type: functional; conditions: Enterovirus A, 144 h
[9] = tested on: Coxsackievirus A16; experiment: Antiviral activity against Coxsackievirus A16 TA271 infected in ICR mouse assessed as reduction in viral load in hind limb muscle at 2 mg/kg, im after 3 to 5 days post infection by RT-PCR analysis; type: functional, organism-based
[10] = tested on: Coxsackievirus A16; experiment: Antiviral activity against Coxsackievirus A16 TA271 infected in ICR mouse assessed as reduction in viral load in hind limb muscle at 0.08 uM/L preincubated with viral suspension for 2 hrs followed by intramuscular administration after 3 to 5 days post infection by RT-PCR analysis; type: functional

CC(=O)OC(CC=C(C)C)C1=CC(=O)c2c(O)ccc(O)c2C1=O (stereo not given)
Activity [1]: Active | Activity [2]: Active | Activity [3]: inactive | inhibition at 0.08 µM [4]: 80% | Activity [5]: inactive | Activity [6]: Active | Activity [7]: inactive | survival at 2 mg/kg [8]: 50% | Activity [9]: Active | Activity [10]: Active
